Laboratory results from patent US9738697B2 (Wisconsin Alumni Research Foundation, priority 2013, dated 2017).
Entries after “also recorded” stand apart in the source; their conditions may differ. Each block holds one compound with its values, some of them ahead of it.

Tests used:
DPP-4 [1] = assay: DPP-4 (EMD Biosciences; catalog #317640) in TBS buffer, pH 8.0; settings: 37° C., up to seven (7) days
chymotrypsin [2] = biological target: T1, chymotrypsin (Bos taurus, UniProt P00766); assay: Protease assay with chymotrypsin (HPLC); type: in vitro ADME; settings: 50 μg/mL chymotrypsin
T1 construct: purchased Promega V1062
Experimental: (§1) An HPLC method from the literature was used to assess protease action on selected compounds.^29,31 Two nmol of solid peptide was dissolved in 40 μL of TBS pH 8.0 (resulting concentration of peptide=40 μM) before protease was added. Chymotrypsin was purchased from Promega (Fitchburg, Wis.; catalog #V1062), and neprilysin was purchased from Reprokine. Ltd. (Valley Cottage, N.Y.; catalog #RKP08473); stock solutions of 250 μg/mL chymotrypsin and 200 μg/mL neprilysin in water were prepared. A 10 μL aliquot of protease stock solution was added to 40 μL of 40 μM peptide solution to begin the reaction. Periodically, a 10 μL aliquot of the solution was removed, and protease action was halted by adding this aliquot to 100 μL of 1% aqueous TFA solution. A portion (100 μL) of the quenched solution was injected onto an HPLC column using the conditions described under “Peptide Synthesis”, and peaks were analyzed using MALDI-TOF MS. The time course of peptide degradation was experimentally determined by integrating the area of each peak in a series of HPLC traces. The area percent of parent peptide (relative to the initial trace) was calculated for each trace and plotted in GraphPad Prism as an exponential decay to determine half-life values.
(§2) ID. […] Major backbone cut sites are indicated with double front slashes. […] Digestion occurs at three major cleavage sites. […] ID. NO: 7 with 50 μg/mL chymotrypsin in TBS pH 8.0 at room temperature. […] ID. NO: 9 with 50 μg/mL chymotrypsin in TBS pH 8.0 at room temperature. This peptide has seven substitutions, α→Aib.

chymotrypsin [3] = system: T2, chymotrypsin; assay: Protease assay with chymotrypsin (HPLC); type: in vitro ADME; settings: chymotrypsin (50 μg/mL) in TBS, 50 μg/mL chymotrypsin, TBS pH 8.0, room temperature
T2 construct: purchased Promega V1062
Experimental: as §1, §2

neprilysin = biological target: T3, neprilysin (Homo sapiens, UniProt P08473); assay: Protease assay with neprilysin (HPLC); type: in vitro ADME; settings: 40 μg/mL neprilysin
T3 construct: purchased Reprokine; Ltd. RKP08473

DPP-4 [4] = biological target: T4, DPP-4 (Homo sapiens, UniProt P27487); assay: Protease assay with DPP-4 (HPLC); type: in vitro ADME; settings: TBS pH 8.0, 37° C.
T4 construct: purchased EMD Biosciences 317640

human GLP-1 receptor = human GLP-1 receptor (Homo sapiens, UniProt P43220); assay: GLP-1R activation monitored by cAMP production in HEK293 cells
neprilysin (NEP 24.11) = settings: cited from earlier work
[5] = system: dipeptidyl peptidase-4 (DPP-4); settings: cited from earlier work
C57BL/6J mice = assay: Glucose tolerance test (GTT) in mice; type: in vivo, mouse
Experimental: ID. NO: 7 was administered to mice by interperitoneal (i.p.) injection at a 1 mg/kg dose, or lower for SEQ. ID. NO: 7, using an injection volume of 10 mL/kg body mass. Each peptide was first dissolved in prefiltered DMSO at 10 mg/mL concentration, then diluted >20-fold with TBS buffer, pH 7.4 (final DMSO conc.=<5%). Glucose was administered by i.p. injection with a sterile-filtered 30% D-glucose-saline solution at a 1.5 g/kg dose using a 5 mL/kg injection volume.
Thirteen-week-old male C57BL/6J mice (The Jackson Laboratory) (n=4) were fasted overnight on wood chip bedding for 15 hours prior to the experiment. Blood glucose levels were monitored from a tail tip bleed using an ACCU-CHEK®-brand blood glucose meter (Roche Diagnostics, Indianapolis, Ind.). Fasting glucose levels were measured at 75 minutes prior to the glucose injection (t=−75 min), and the compound injection was performed 60 minutes prior to the glucose injection (t=−60 min). Glucose levels were measured immediately prior to the glucose injection (t=0 min) to assess any changes in the baseline glucose caused by peptide administration. Blood glucose levels were monitored at 30, 60, 90, and 120 minutes after injection of glucose.
Five hours after peptide injection, the mice received a second injection of 1.5 g/kg glucose. Blood glucose was monitored at 30 min after this second glucose injection. Mice were sacrificed by CO2 inhalation at the conclusion of the GTT.

T3 sequence (P08473 whole entry): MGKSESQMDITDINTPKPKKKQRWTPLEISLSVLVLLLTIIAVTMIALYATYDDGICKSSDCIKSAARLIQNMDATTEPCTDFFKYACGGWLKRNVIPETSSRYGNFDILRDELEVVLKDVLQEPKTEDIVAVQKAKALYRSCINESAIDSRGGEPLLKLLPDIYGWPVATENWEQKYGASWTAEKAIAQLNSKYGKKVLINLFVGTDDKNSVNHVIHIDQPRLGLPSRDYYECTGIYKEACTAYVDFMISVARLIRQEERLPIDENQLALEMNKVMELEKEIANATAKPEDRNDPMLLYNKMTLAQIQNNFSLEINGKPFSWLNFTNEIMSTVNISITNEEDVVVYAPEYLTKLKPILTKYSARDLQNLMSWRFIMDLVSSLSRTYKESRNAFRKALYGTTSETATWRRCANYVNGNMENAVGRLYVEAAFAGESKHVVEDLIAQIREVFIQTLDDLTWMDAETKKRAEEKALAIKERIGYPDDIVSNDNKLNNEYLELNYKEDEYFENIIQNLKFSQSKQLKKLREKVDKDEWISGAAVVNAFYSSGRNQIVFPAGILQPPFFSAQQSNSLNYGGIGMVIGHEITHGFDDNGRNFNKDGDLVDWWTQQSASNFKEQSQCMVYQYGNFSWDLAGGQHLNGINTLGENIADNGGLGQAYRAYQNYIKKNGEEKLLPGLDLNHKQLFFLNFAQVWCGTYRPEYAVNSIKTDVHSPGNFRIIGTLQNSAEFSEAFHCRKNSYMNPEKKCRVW
T4 sequence (P27487 whole entry): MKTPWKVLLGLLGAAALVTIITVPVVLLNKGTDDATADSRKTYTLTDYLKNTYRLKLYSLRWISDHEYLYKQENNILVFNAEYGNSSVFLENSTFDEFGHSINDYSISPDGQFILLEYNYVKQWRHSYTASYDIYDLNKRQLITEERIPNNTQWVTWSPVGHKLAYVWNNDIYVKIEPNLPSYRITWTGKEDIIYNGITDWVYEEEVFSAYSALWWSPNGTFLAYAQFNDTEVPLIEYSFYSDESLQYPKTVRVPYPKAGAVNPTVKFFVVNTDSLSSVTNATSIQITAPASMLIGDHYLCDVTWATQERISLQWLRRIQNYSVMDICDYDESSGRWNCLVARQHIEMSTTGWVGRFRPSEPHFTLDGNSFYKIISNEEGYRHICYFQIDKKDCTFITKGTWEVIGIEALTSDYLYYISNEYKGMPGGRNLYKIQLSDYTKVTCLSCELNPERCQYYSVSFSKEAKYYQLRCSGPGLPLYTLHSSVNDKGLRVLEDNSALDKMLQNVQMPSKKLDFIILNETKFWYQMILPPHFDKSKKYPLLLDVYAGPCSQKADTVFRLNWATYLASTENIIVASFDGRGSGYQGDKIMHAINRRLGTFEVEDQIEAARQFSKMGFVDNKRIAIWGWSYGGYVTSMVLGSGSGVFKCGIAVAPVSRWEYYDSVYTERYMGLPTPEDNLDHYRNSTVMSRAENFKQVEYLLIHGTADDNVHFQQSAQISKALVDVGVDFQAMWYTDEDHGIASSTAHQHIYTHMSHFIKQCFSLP
human GLP-1 receptor, sequence (P43220 24-463): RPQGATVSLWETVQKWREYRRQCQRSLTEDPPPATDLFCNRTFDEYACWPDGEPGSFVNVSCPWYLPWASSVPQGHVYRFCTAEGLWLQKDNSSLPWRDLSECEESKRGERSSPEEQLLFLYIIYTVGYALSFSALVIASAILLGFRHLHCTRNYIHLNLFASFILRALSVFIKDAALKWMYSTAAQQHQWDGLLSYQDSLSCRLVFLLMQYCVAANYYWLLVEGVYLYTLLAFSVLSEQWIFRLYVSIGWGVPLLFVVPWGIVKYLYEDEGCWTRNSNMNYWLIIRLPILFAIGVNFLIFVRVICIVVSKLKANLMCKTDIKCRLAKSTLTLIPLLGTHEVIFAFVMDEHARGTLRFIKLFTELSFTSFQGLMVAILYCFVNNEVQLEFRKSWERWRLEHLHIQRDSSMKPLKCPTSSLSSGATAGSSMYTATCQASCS

Compound: H-HAEGTFTSDASXYLEXQAAXEFIXWLVZGRG-NH2
not cleaved (DPP-4 [1]): no cleavage was detected during seven (7) days

half-life (chymotrypsin [2]; 40 μM peptide, TBS pH 8.0, room temperature, read-out: t1/2 with chymotrypsin (converted)): 12.5 min
remaining at 25 min, 40 μM (chymotrypsin [3]; 1500 seconds, read-out: peptide remaining after 1500 seconds): > 25%
t1/2 with neprilysin relative to native GLP-1 peptide (neprilysin): more than 100 times
cleavage by DPP-4 over seven days (in words) (DPP-4 [4]; monitored seven days): no cleavage was detected
Max Response (% GLP-1 max) (human GLP-1 receptor; HEK293 cells, cAMP production): 88 % GLP-1 max
cAMP production, AVERAGES at M Concentrations −7 (human GLP-1 receptor; peptide concentration −7 (log M)): 88.32
cAMP production, AVERAGES at M Concentrations −8 (human GLP-1 receptor; peptide concentration −8 (log M)): 63.0221
cAMP production, AVERAGES at M Concentrations −9 (human GLP-1 receptor; peptide concentration −9 (log M)): 35
cAMP production, AVERAGES at M Concentrations −10 (human GLP-1 receptor; peptide concentration −10 (log M)): 4.469
cAMP production, AVERAGES at M Concentrations −11 (human GLP-1 receptor; peptide concentration −11 (log M)): 3.504
cAMP production, AVERAGES at M Concentrations −12 (human GLP-1 receptor; peptide concentration −12 (log M)): 2.813
cAMP production, AVERAGES at M Concentrations −13 (human GLP-1 receptor; peptide concentration −13 (log M)): 3.831
Compound: CC[C@H](C)[C@H](NC(=O)[C@H](Cc1ccccc1)NC(=O)[C@H](CCC(=O)O)NC(=O)[C@H]1CCC[C@@H]1NC(=O)[C@H](C)NC(=O)[C@H](C)NC(=O)[C@H](CCC(N)=O)NC(=O)[C@H]1CCC[C@@H]1NC(=O)[C@H](CCC(=O)O)NC(=O)[C@H](CC(C)C)NC(=O)[C@H](Cc1ccc(O)cc1)NC(=O)[C@H]1CCC[C@@H]1NC(=O)[C@H](CO)NC(=O)C(C)(C)NC(=O)[C@H](CC(=O)O)NC(=O)[C@H](CO)NC(=O)[C@@H](NC(=O)[C@H](Cc1ccccc1)NC(=O)[C@@H](NC(=O)CNC(=O)[C@H](CCC(=O)O)NC(=O)C(C)(C)NC(=O)[C@@H](N)Cc1c[nH]cn1)[C@@H](C)O)[C@@H](C)O)C(=O)N[C@H]1CCC[C@@H]1C(=O)N[C@@H](Cc1c[nH]c2ccccc12)C(=O)N[C@@H](CC(C)C)C(=O)N[C@H](C(=O)N[C@H]1CNC[C@@H]1C(=O)NCC(=O)N[C@@H](CCCNC(=N)N)C(=O)NCC(N)=O)C(C)C [SEQ. ID. NO: 7]

Compound: H-HAEGTFTSDVSSYLEGQAAKEFIAWLVKGRG-NH2
cleaved bond (neprilysin (NEP 24.11)): Asp15-Val16; also recorded: cleaves after Ser18; also recorded: cleaves after Tyr19; also recorded: cleaves after Glu27; also recorded: cleaves after Phe28; also recorded: cleaves after Trp31
cleaved bond [5]: cleaves after Ala8

number of major cleavage sites, chymotrypsin (chymotrypsin [2]; MALDI-TOF-MS): three
half-life at 40 μM (chymotrypsin [2]; chymotrypsin (isolated protease), 40 μM peptide, TBS pH 8.0, room temperature, read-out: t1/2 with chymotrypsin (converted)): 0.317 min
remaining at 1 min, 40 μM (chymotrypsin [3]; 60 seconds, read-out: peptide remaining after 60 seconds of digestion): < 25%
number of major cleavage sites, neprilysin (neprilysin; MALDI-TOF-MS): five
half-life at 40 μM (neprilysin; neprilysin (isolated protease), pH 8, 40 μM peptide, TBS pH 8.0, room temperature, read-out: half-life (t1/2) with neprilysin (converted)): 19.8 min
half-life at 40 μM (DPP-4 [4]; DPP-4 (isolated protease)): 13.5 min
Compound: CC[C@H](C)[C@H](NC(=O)[C@H](Cc1ccccc1)NC(=O)[C@H](CCC(=O)O)NC(=O)[C@H](CCCCN)NC(=O)[C@H](C)NC(=O)[C@H](C)NC(=O)[C@H](CCC(N)=O)NC(=O)CNC(=O)[C@H](CCC(=O)O)NC(=O)[C@H](CC(C)C)NC(=O)[C@H](Cc1ccc(O)cc1)NC(=O)[C@H](CO)NC(=O)[C@H](CO)NC(=O)[C@@H](NC(=O)[C@H](CC(=O)O)NC(=O)[C@H](CO)NC(=O)[C@@H](NC(=O)[C@H](Cc1ccccc1)NC(=O)[C@@H](NC(=O)CNC(=O)[C@H](CCC(=O)O)NC(=O)[C@H](C)NC(=O)[C@@H](N)Cc1c[nH]cn1)[C@@H](C)O)[C@@H](C)O)C(C)C)C(=O)N[C@@H](C)C(=O)N[C@@H](Cc1c[nH]c2ccccc12)C(=O)N[C@@H](CC(C)C)C(=O)N[C@H](C(=O)N[C@@H](CCCCN)C(=O)NCC(=O)N[C@@H](CCCNC(=N)N)C(=O)NCC(N)=O)C(C)C [SEQ. ID. NO: 1]
Average Blood Glucose Level (C57BL/6J mice; 1 mg/kg i.p., time 0.0 min): 81.8 mg/dL
Average Blood Glucose Level (C57BL/6J mice; 1 mg/kg i.p., time 30.0 min): 132.8 mg/dL
Average Blood Glucose Level (C57BL/6J mice; 1 mg/kg i.p., time 60.0 min): 99.3 mg/dL
Average Blood Glucose Level (C57BL/6J mice; 1 mg/kg i.p., time 90.0 min): 74.8 mg/dL
Average Blood Glucose Level (C57BL/6J mice; 1 mg/kg i.p., time 120.0 min): 86.0 mg/dL
Average Blood Glucose Level (C57BL/6J mice; 1 mg/kg i.p., time −60.0 min (peptide injection)): 108.0 mg/dL
Average Blood Glucose Level at 30 min (column head AUC) (C57BL/6J mice; 1 mg/kg i.p., Table 7, 30 min after second glucose injection given five hours after peptide): 250.5
glucose-lowering effect in GTT repeated 5 hours after agonist administration (in words) (C57BL/6J mice; 1 mg/kg, 30 min after the second glucose challenge): no significant difference
